# Test results from patent US12171766B2, “Methods of treating patients suffering from brain injury and methods of increasing the value of the extended Glasgow Outcome Scale of patients suffering from brain injury” (VERINOS OPERATIONS GMBH, priority 2021, dated 2024).
# Test system: adult intensive care patients with acute moderate and severe TBI
# Assay: NOSTRA phase III trial: Extended Glasgow Outcome Scale (eGOS) at 3 and 6 months, Ronopterin 17 mg/kg infused over 48 hours vs placebo, incl. post hoc subgroup analyses
# Type: in vivo, human
# Settings: for Good Recovery (eGOS ≥ 7) at 6 months, Odds ratio, 95% CI / Improvement in eGOS from 3 to 6 months, at least + 1 eGOS level, Odds ratio, 95% CI / Good Recovery (eGOS ≥ 7) at 3 months, Odds ratio, 95% CI: vs placebo
# Method: A phase III trial of Ronopterin infusion to adult TBI patients (18-60 years) with acute moderate and severe TBI was performed. Based on the results of the earlier phase II study, the NOSTRA (NO Synthase in TRAumatic Brain Injury) phase III trial was designed to detect clinically relevant differences in clinical outcome (Extended Glasgow Outcome Score at 6 months after injury) as primary endpoint.
# NOSTRA III was a multicentre, prospective, two parallel groups, blinded, placebo-controlled, randomised phase III trial of Ronopterin infusion for 48 hours in adult intensive care patients with acute moderate and severe TBI. […] The detailed study protocol is described by Tegtmeier et al. Efficacy of Ronopterin (VAS203) in Patients with Moderate and Severe Traumatic Brain Injury (NOSTRA phase III trial): study protocol of a confirmatory, placebo-controlled, randomised, double blind, multi-centre study. Trials. 2020. A total of 224 evaluable patients with moderate and severe TBI were enrolled in 32 centres in Austria, France, Germany, Spain, and United Kingdom. The trial started on 24 Aug. 2016 with last-patient last-visit on 17 Jun. 2020.
# Patients between 18 and 60 years of age with Glasgow Coma Score≥3 requiring intracranial pressure (ICP) monitoring were enrolled. Other inclusion criteria were TBI within the last 18 hours but at least 6 hours after the injury, which were expected to survive more than 24 hours after admission.
# Ronopterin and placebo (0.9% saline) were infused continuously via central venous catheter at a constant rate. A total dose of 17 mg/kg body weight of Ronopterin was infused for 48 hours (daily dose 8.5 mg/kg body weight).
# The primary outcome was the difference between eGOS in Ronopterin and placebo treated patients at 6 months after trauma. The eGOS was determined by a face to face meeting by trained assessors.
# The null-hypothesis of no shift across the 8 ordered categories of eGOS for the two treatment groups was tested after six months based on a proportional odds model stratified by age (18-39 years and 40-60 years). The treatment effect was estimated using ordinal Logistic regression model as the (proportional) odds ratio of Ronopterin versus Placebo. Treatment and age (18-39 years and 40-60 years) were included in the model. The proportional odds assumption was tested using a Chi-Square Score Test.
# As secondary efficacy endpoint the eGOS at 3 months was analysed using the same statistics.
# The main objective of the post hoc analyses was to estimate the effect size of VAS203 compared with placebo for the primary endpoint eGOS-I in the subgroups time to infusion ≤12 hours and >12 hours. Supportive analyses were conducted by age group (<40 years, ≥40 years) because age group was used as a stratification factor in the study. Comparability between treatment groups regarding demographics as well as severity and location of disease was investigated using similar methods as in the main CSR.
# The proportions of patients per eGOS-I level at 3 months and at 6 months were calculated. For the change in eGOS-I over time, the proportion of patients with changes from 3 to 6 months were calculated by eGOS-I level, and in addition categorised as decreased (i.e. any decrease in eGOS-I level from 3 to 6 months), unchanged (i.e. no change in eGOS-I level from 3 to 6 months), and increased (i.e. any increase in eGOS-I level from 3 to 6 months).
# Ordinal logistic regression was used for the analysis of eGOS-I at 3 months and at 6 months, including treatment group and age group (<40 years, ≥40 years) as factors in the model. Estimated odds ratios for the comparison of the VAS203 and placebo groups of >1 mean that eGOS-I was higher in the VAS203 group than in the placebo group across the 8 levels, whereas odds ratios of <1 mean that eGOS-I was lower in the VAS203 group than in the placebo group. Odds ratios together with their 95% CIs were used to estimate and assess the size of the treatment effect of VAS203 compared to placebo. […]
structure (smiles),measurement,setting,value
"CC(O)C(O)C1CNc2nc(N)nc(N)c2N1 [Ronopterin, 4-Amino-(6R,S)-5,6,7,8-tetrahydro-L-biopterin]","Good Recovery (eGOS ≥ 7) at 6 months, Odds ratio, 95% CI","All females 40-60 years (so in the source), >12 hours",5.5 (0.6-53);
same,"Good Recovery (eGOS ≥ 7) at 6 months, Odds ratio, 95% CI","All females, all times to infusion",2.8 (0.6-12.6); n = 44
same,"Improvement in eGOS from 3 to 6 months, at least + 1 eGOS level, Odds ratio, 95% CI","All males 18-60 years and young females 18-39 years, ≤12 hours",3.4 (1.2-10.2);
same,"Improvement in eGOS from 3 to 6 months, at least + 1 eGOS level, Odds ratio, 95% CI","All males 18-60 years, ≤12 hours",3.7 (1.1-12);
same,"Good Recovery (eGOS ≥ 7) at 6 months, Odds ratio, 95% CI","All males plus females 18-39 years, ≤12 hours",2.4 (0.8-7.6);
same,"Good Recovery (eGOS ≥ 7) at 3 months, Odds ratio, 95% CI","Female, 18-39 years, >12 hours",6.5 (0.27-161);
same,"Good Recovery (eGOS ≥ 7) at 6 months, Odds ratio, 95% CI","Female, 18-39 years, >12 hours",2.3 (0.2-33);
same,"Improvement in eGOS from 3 to 6 months, at least + 1 eGOS level, Odds ratio, 95% CI","Female, 18-39 years, >12 hours",0.3 (0.04-2.8);
same,"Good Recovery (eGOS ≥ 7) at 3 months, Odds ratio, 95% CI","Female, 18-39 years, ≤12 hours",1.5 (0.06-41);
same,"Good Recovery (eGOS ≥ 7) at 6 months, Odds ratio, 95% CI","Female, 18-39 years, ≤12 hours",6.0 (0.2-163);
same,"Improvement in eGOS from 3 to 6 months, at least + 1 eGOS level, Odds ratio, 95% CI","Female, 18-39 years, ≤12 hours",1.5 (0.06-41);
same,"Good Recovery (eGOS ≥ 7) at 3 months, Odds ratio, 95% CI","Female, 40-60 years, >12 hours",4.2 (0.2-102);
same,"Good Recovery (eGOS ≥ 7) at 6 months, Odds ratio, 95% CI","Female, 40-60 years, >12 hours",6.2 (0.3-147);
same,"Improvement in eGOS from 3 to 6 months, at least + 1 eGOS level, Odds ratio, 95% CI","Female, 40-60 years, >12 hours",1.3 (0.1-18);
same,"Good Recovery (eGOS ≥ 7) at 3 months, Odds ratio, 95% CI","Female, 40-60 years, ≤12 hours",1.3 (0.02-83);
same,"Good Recovery (eGOS ≥ 7) at 6 months, Odds ratio, 95% CI","Female, 40-60 years, ≤12 hours",0.3 (0.01-11.3);
same,"Improvement in eGOS from 3 to 6 months, at least + 1 eGOS level, Odds ratio, 95% CI","Female, 40-60 years, ≤12 hours",0.3 (0.01-11.3);
same,"Good Recovery (eGOS ≥ 7) at 3 months, Odds ratio, 95% CI","Females 18-39 years, all times to infusion",4.2 (0.4-47); n = 23
same,"Good Recovery (eGOS ≥ 7) at 3 months, Odds ratio, 95% CI","Females 40-60 years, all times to infusion",5.7 (0.3-126); n = 21
same,"Good Recovery (eGOS ≥ 7) at 3 months, Odds ratio, 95% CI","Male, 18-39 years, >12 hours",0.2 (0.03-0.85);
same,"Improvement in eGOS from 3 to 6 months, at least + 1 eGOS level, Odds ratio, 95% CI","Male, 18-39 years, >12 hours",0.7 (0.2-1.9);
same,"Good Recovery (eGOS ≥ 7) at 6 months, Odds ratio, 95% CI","Male, 18-39 years, time to infusion >12 hours",0.6 (0.2-1.6);
same,"Good Recovery (eGOS ≥ 7) at 6 months, Odds ratio, 95% CI","Male, 18-39 years, time to infusion ≤12 hours",1.4 (0.3-5.9);
same,"Good Recovery (eGOS ≥ 7) at 3 months, Odds ratio, 95% CI","Male, 18-39 years, ≤12 hours",0.4 (0.08-2.2);
same,"Improvement in eGOS from 3 to 6 months, at least + 1 eGOS level, Odds ratio, 95% CI","Male, 18-39 years, ≤12 hours",5.4 (1.1-26);
same,"Good Recovery (eGOS ≥ 7) at 3 months, Odds ratio, 95% CI","Male, 40-60 years, >12 hours",0.2 (0.02-1.4);
same,"Good Recovery (eGOS ≥ 7) at 6 months, Odds ratio, 95% CI","Male, 40-60 years, >12 hours",0.6 (0.2-2.2);
same,"Improvement in eGOS from 3 to 6 months, at least + 1 eGOS level, Odds ratio, 95% CI","Male, 40-60 years, >12 hours",0.98 (0.3-2.8);
same,"Good Recovery (eGOS ≥ 7) at 3 months, Odds ratio, 95% CI","Male, 40-60 years, ≤12 hours",0.7 (0.01-38);
same,"Good Recovery (eGOS ≥ 7) at 6 months, Odds ratio, 95% CI","Male, 40-60 years, ≤12 hours",9.0 (0.4-194);
same,"Improvement in eGOS from 3 to 6 months, at least + 1 eGOS level, Odds ratio, 95% CI","Male, 40-60 years, ≤12 hours",2.3 (0.4-14.6);
same,increase in eGOS levels from 3 to 6 months,"age 18-39 years, >12 hours (FIG. 7E)",up to 3 levels
same,number of patients with increase in eGOS by at least 2 levels from 3 to 6 months,"age 18-39 years, >12 hours (FIG. 7G)",10
same,less patients with decrease in eGOS over time vs placebo: significance,"age 18-39 years, all times to infusion",not significant
same,increase in eGOS levels from 3 to 6 months,"age 18-39 years, all times to infusion (FIG. 6A)",up to 3 levels
same,number of patients with increase in eGOS by at least 2 levels from 3 to 6 months,"age 18-39 years, all times to infusion (FIG. 6C)",14
same,more patients with higher increase in eGOS over time vs placebo: significance,"age 18-39 years, all times to infusion (FIG. 6D)",not significant
same,increase in eGOS levels from 3 to 6 months,"age 18-39 years, ≤12 hours (FIG. 7A)",up to 3 levels
same,increase in proportion of patients with an eGOS increase by at least 1 level compared to Placebo: significance,"age 18-39 years, ≤12 hours (FIG. 7B, 7D)",significant
same,number of patients with increase in eGOS by at least 2 levels from 3 to 6 months,"age 18-39 years, ≤12 hours (FIG. 7C)",4
same,increase in eGOS levels from 3 to 6 months,"age 40-60 years, >12 hours (FIG. 9E)",up to 4 levels
same,number of patients with increase in eGOS by at least 2 levels from 3 to 6 months,"age 40-60 years, >12 hours (FIG. 9G)",5
same,less patients with a decrease in eGOS over time vs placebo: significance,"age 40-60 years, all times to infusion",not (statistically) significant
same,increase in eGOS levels from 3 to 6 months,"age 40-60 years, all times to infusion (FIG. 8A)",up to 4 levels
